pIC50: −log10 of the molar value.
Assays:
[1] = target: human 20S proteasome T-L activity; conditions: read-out: IC50 T-L; 2 nM 20S, 30 min at 37°C, 100 µM substrate
human 20S proteasome = test system: T1, human 20S proteasome; design: method as in PMID 22642538; conditions: cited from earlier work
T1 construct: purchased Boston Biochem (Cambridge, MA, USA)

[2] = target: human 20S proteasome ChT-L activity; conditions: read-out: IC50 ChT-L; 2 nM 20S, 30 min at 37°C, 100 µM substrate
[3] = target: human 20S proteasome PGPH-L activity; conditions: read-out: IC50 PGPH-L; 2 nM 20S, 30 min at 37°C, 100 µM substrate
[4] = test system: wild-type yeast 20S proteasome; assay: UV stopped-flow binding kinetics; conditions: first cluster, 37 °C
From the text: (§1) The analysis of kinetic progress curves, employing Eq. (S8), allows to obtain the values of k obs at different porphyrin concentrations, which can be exploited, for a classical bimolecular behavior, to obtain the association and dissociation rate constants according to Eq. (1a)1a kobs=kon⋅[Porph]+koff […]
(§2) Therefore, the classical bimolecular behavior, as from Eq. (1a), has been modified accordingly:1b kobs=(kc⋅Pc/Ptot+ko⋅Po/Ptot)⋅[Porph]+koff where k c and k o are the porphyrin binding rate constants to the 20S proteasome in the “closed” and in the “open” conformation, respectively, k off is the dissociation rate constant of the porphyrin, P c and P o are the relative percentage of the two conformations (“closed” and “open”, respectively) as a function of porphyrin concentration, as from Eqs. (S4–S7) (see SI). […]
(§3) Cooperativity for Porphyrin Binding. In the presence of (at least) two states (i.e., “open” and […]
(§4) corresponds to the population of “closed” 20S as a function of porphyrin concentration (with Kc being the porphyrin equilibrium binding constant for this conformation) and Po […]
(§5) Refers to the population of “open” 20S as a function of porphyrin concentration, Ko being the equilibrium porphyrin binding constant and L is the conformationa l equilibrium between the two states in the absence of porphyrins, as from Eq. (S6)

[5] = test system: α-3ΔN mutant of yeast 20S proteasome; assay: UV stopped-flow binding kinetics; conditions: simple bimolecular binding, 37 °C
From the text: as §1, §2, §3, §4, §5

[6] = test system: wild-type yeast 20S proteasome; assay: Steady-state kinetic analysis (Lineweaver-Burk), Suc-LLVY-AMC; assay type: biochemical
From the text: (§6) Proteasome activity assay.
(§7) Latent Core Particles (CP).
(§8) in a 384 multiwell black plate.
(§9) The IC50 is defined as the
(§10) double-reciprocal Lineweaver-Burk plot
(§11) squares. […] The goodness of fit was
(§12) [Etot ] = KI ⋅ 1 + 1 (S3a)
(§13) or an un-competitive inhibition equation:
(§14) [Etot ] = Km ⋅ 1 + KI (S3b)
(§15) or else a mixed inhibition equation: […]
(§16) different affinity for the two forms.
(§17) Cooperativity for Porphyrin Binding.
(§18) be described by Eq. (1b) 2 where Pc

α-3ΔN yeast mutant 20S = assay: as above; assay type: biochemical; conditions: yeast mutant α-3ΔN (open conformation)
From the text: as §6, §7, §8, §9, §10, §11, §12, §13, §14, §15, §16, §17, §18

Q: With `C[n+]1ccc(-c2c3nc(c(-c4cc[n+](C)cc4)c4ccc([nH]4)c(-c4cc[n+](C)cc4)c4nc(c(-c5cc[n+](C)cc5)c5ccc2[nH]5)C=C4)C=C3)cc1` [compound 1, meso-tetrakis(4-N-methylpyridyl) porphyrin] as the compound, how does the pIC50 [1] read?
A: 6.19

Q: And the inhibition mechanism (human 20S proteasome)?
A: competitive and reversible inhibitor

Q: And the pIC50 [2]?
A: 6.41

Q: And the pIC50 [3]?
A: 6.85

Q: For `C[n+]1ccc(-c2ccc(-c3c4nc(c(-c5ccc(-c6cc[n+](C)cc6)cc5)c5ccc([nH]5)c(-c5ccc(-c6cc[n+](C)cc6)cc5)c5nc(c(-c6ccc(-c7cc[n+](C)cc7)cc6)c6ccc3[nH]6)C=C5)C=C4)cc2)cc1` [compound 2, meso-tetrakis(4-N-methylphenylpyridyl)-porphyrin], which “L, open/closed conformational equilibrium in the absence of porphyrins” value [4] is on record?
A: 4.0 × 10^−6

Q: And the “kc, binding rate constant, closed conformation” value [4]?
A: 130 M⁻¹ s⁻¹

Q: What about the “ko, binding rate constant, open conformation” value [4] of the same compound?
A: 7e+06 M⁻¹ s⁻¹

Q: And the “ko, binding rate constant” value [5]?
A: 2.5e+06 M⁻¹ s⁻¹

Q: What about the inhibition mechanism [6] of the same compound?
A: almost pure non-competitive

Q: What about the inhibition mechanism (α-3ΔN yeast mutant 20S) of the same compound?
A: competitive inhibitor

Reference: paper PMC5719074, “Electrostatic Map Of Proteasome α-Rings Encodes The Design of Allosteric Porphyrin-Based Inhibitors Able To Affect 20S Conformation By Cooperative Binding” (Scientific Reports, 2017)
